Consider 35 compounds from patent US6251903A, “Alkyl, azido, alkoxy, and fluoro-substituted and fused quinoxalinediones and the use thereof as glycine receptor antagonist” (priority 2000, dated 2001).

The target in experiment [1] is NMDA receptor glycine sites. As to the kind of experiment: electrophysiological assay, cloned rat NMDA receptors expressed in Xenopus oocytes. The class given is cell-based. Particulars: Table II; from electrophysiology using Xenopus oocytes. From the text: (§1) The binding affinities of quinoxaline-2,3-diones at NMDA receptor glycine sites also were estimated by electrophysiological assays with either cloned rat NMDA receptors expressed in Xenopus oocytes, or non-NMDA receptors expressed in oocytes by whole rat brain poly(A)^+ RNA. […] For NMDA receptors Ki values were approximated by averaging values at three subtype combinations (NR1A/NR2A, NR1A/NR2B, and NR1A/NR2C).

For a further experiment, the target named is glycine binding site (Rattus norvegicus, UniProt P35439). As to the kind of experiment: affinity for the glycine binding site / glycine/NMDA receptor (Ki; method not stated).
Source text: as §1

For a further experiment, the system named is mice. Briefly: anticonvulsant activity in maximum electroshock seizure (MES) experiments in mice. The format is in vivo, male Swiss/Webster mice. To be noted: for ED50 as an anticonvulsant in the MES experiment in mice: route not stated; for ED50 / ED100: Mus musculus; for ED50: read-out: ED50 (MES). The procedure: The seizure stimulus parameters were: 50 mA, 60 Hz, rectangular pulse, width 0.8 msec, duration 200 msec. Tonic hind limb extension observed after application of the electrical stimulus was recorded as occurrence of seizure. The drug was applied i.v. as an aqueous Tris (Tromethamine) solution.

In experiment [2] the test system is glycine binding site of the NMDA receptor. To be noted: literature, cited from earlier work.

In general, Ki refers to a dissociation constant, usually derived from enzyme kinetics or from competition with a known ligand. The ED50 is the midpoint of the dose-response relation.

Read-outs that look alike come from different tables or passages of the source.

Consider `CCc1cc(Br)cc2[nH]c(=O)c(=O)[nH]c12` [Et H Br H, 7-Bromo-5-ethyl-1,4-dihydroquinoxaline-2,3-dione], for which, in experiment [1], the Ki is 900 nM.

For `Cc1c(F)cc2[nH]c(=O)c(=O)[nH]c2c1[N+](=O)[O-]` [NO2 Me F H, 7-Fluoro-6-methyl-5-nitro-1,4-dihydro-2,3-quinoxalinedione], the inhibition constant (Ki) (in experiment [1]; at glycine binding site) was 53 nM throughout. Also, the “ED50 (MES)” value in the experiment on mice (Table III, i.v. injection) came to 2 mg/kg. The “ED50 as an anticonvulsant in the MES experiment in mice” value (from here on “ED50 as an anticonvulsant”) in the experiment with mice is listed as 2 mg/kg.

Take `Cc1cc([N+](=O)[O-])c2[nH]c(=O)c(=O)[nH]c2c1` [NO2 H Me H, 7-Methyl-5-nitro-1,4-dihydro-2,3-quinoxalinedione]: the Ki in experiment [1] amounted to 1200 nM.

As to `[N-]=[N+]=Nc1c(F)cc2[nH]c(=O)c(=O)[nH]c2c1[N+](=O)[O-]` [NO2 N3 F H, 6-Azido-7-fluoro-5-nitro-1,4-dihydroquinoxaline-2,3-dione], the Ki came out at 280 nM in experiment [1] and 280 nM on glycine binding site (Table III, read-out: Ki). The ED50 in the experiment on mice (iv, Table III, i.v. injection) was 7.5 mg/kg.

Regarding `O=c1[nH]c2cc3ccccc3cc2[nH]c1=O` [H CH=CHCH=CH H, 1,4-dihydrobenzo[g]quinoxaline-2,3-dione], the Ki in experiment [1] was 11000 nM.

With `N#Cc1c(Cl)c(Cl)cc2[nH]c(=O)c(=O)[nH]c12` [CN Cl Cl H, 5-Cyano-6,7-dichloro-1,4-dihydroquinoxaline-2,3-dione], the Ki in experiment [1] worked out at 15 nM.

With `Oc1nc2ccccc2nc1O` [H, reference compound], the inhibition constant Ki at glycine binding site (Table I, read-out: Ki) came out at 2470 nM.

Consider `Cc1cc2[nH]c(=O)c(=O)n(CC(=O)O)c2cc1C` [Example 4a], for which the “glycine site antagonism or affinity (words)” value in experiment [2] is recorded as “functional antagonism”.

For the compound `Cc1cc2[nH]c(=O)c(=O)[nH]c2c([N+](=O)[O-])c1Cl` [NO2 Cl Me H, 6-Chloro-7-methyl-5-nitro-1,4-dihydroquinoxaline-2,3-dione], the Ki (in experiment [1]; at glycine binding site) was 27 nM in each case. Also, the “ED50 as an anticonvulsant” value in the experiment on mice was determined as 2 mg/kg.

As for `O=c1[nH]c2cc(Cl)c(Cl)c([N+](=O)[O-])c2[nH]c1=O` [6,7-dichloro-5-nitro-1,4-dihydroquinoxaline-2,3-dione, reference compound], in the experiment on mice (Table IV, i.v.), the “ED50 (MES)” value lay in the range of 4 to 5 mg/kg, the “ED100 (MES)” value lay within 7 to 10 mg/kg and the “IV peak of action” value is listed as 5 min. The “% protection after 60 min.” value with mice (i.v., 10 mg/kg) is 55%. In the experiment on mice, the “ED50 as an anticonvulsant” value was 4 to 5 mg/kg.

For the compound `O=c1[nH]c2cc(F)c(Cl)c([N+](=O)[O-])c2[nH]c1=O` [NO2 Cl F H, 6-Chloro-1,4-dihydro-7-fluoro-5-nitroquinoxaline-2,3-dione], the Ki on glycine binding site (Table III, read-out: Ki) was determined as 180 nM. For the same compound, in the experiment with mice (iv, Table III, i.v. injection), the ED50 lay within 4 to 5 mg/kg.

As for `Cc1cc(C)c2[nH]c(=O)c(=O)[nH]c2c1` [Me H Me H, 5,7-Dimethyl-1,4-dihydro-2,3-quinoxalinedione], in experiment [1], the inhibition constant (Ki) turned out to be 1700 nM.

Regarding `O=c1[nH]c2cc(Cl)c(F)c([N+](=O)[O-])c2[nH]c1=O` [NO2 F Cl H, 7-Chloro-6-fluoro-5-nitro-1,4-dihydroquinoxaline-2,3-dione], at glycine binding site (Table III, read-out: Ki), the Ki stood at 70 nM. Moreover, the ED50 with mice (iv, Table III, i.v. injection) amounted to 0.9 mg/kg.

On to `[N-]=[N+]=Nc1c(Cl)c(Cl)cc2[nH]c(=O)c(=O)[nH]c12` [N3 Cl Cl H, 5-Azido-6,7-dichloro-1,4-dihydroquinoxaline-2,3-dione], for which the Ki in experiment [1] is 71 nM.

Turning to `O=c1[nH]c2ccc(C(F)(F)F)cc2[nH]c1=O` [CF3, reference compound], on glycine binding site (Table I, read-out: Ki), the Ki turned out to be 360 nM.

As to `CCOc1c(F)cc2[nH]c(=O)c(=O)[nH]c2c1[N+](=O)[O-]` [NO2 OEt F H, 7-Fluoro-6-ethoxy-5-nitro-1,4dihydroquinoxaline-2,3-dione], the inhibition constant Ki in experiment [1] is 1000 nM.

As for `O=c1[nH]c2cc3c(c([N+](=O)[O-])c2[nH]c1=O)CCC3` [NO2 CH2 CH2 CH2 H, 5-Nitrocyclopento[g]-1,4-dihydroquinoxaline-2,3-dione], in experiment [1], the Ki was 800 nM.

On to `O=c1[nH]c2cc(F)c(F)c(F)c2[nH]c1=O` [F F F H, 5,6,7-Trifluoro-1,4-dihydro-2,3-quinoxalinedione], for which the Ki on glycine binding site (Table III, read-out: Ki) turned out to be 2970 nM. Besides, the ED50 in the experiment with mice (iv, Table III, i.v. injection) was 4 to 5 mg/kg. Also, in the experiment with mice (Table IV, i.v.), the ED100 lay in the range of 15 to 20 mg/kg, the “ED50 (MES)” value fell in the range of 4 to 5 mg/kg and the “IV peak of action” value was determined as 2 min. Besides, in the experiment on mice (i.v., 10 mg/kg), the “% protection after 60 min.” value was 0%. For the same compound, in the experiment on mice (i.v., after 60 min), the “protection against MES after 60 min.” value is “no more protection was observed”.

On to `O=c1[nH]c2cc(F)c(Br)c([N+](=O)[O-])c2[nH]c1=O` [NO2 Br F H, 6-Bromo-7-Fluoro-5-nitro-1,4-dihydroquinoxaline-2,3-dione], for which the inhibitory constant (Ki) on glycine binding site (Table III, read-out: Ki) amounted to 43 nM. Moreover, the ED50 with mice (iv, Table III, i.v. injection) was found to be 3.5 mg/kg.

Turning to `N#Cc1c(Cl)c([N+](=O)[O-])cc2[nH]c(=O)c(=O)[nH]c12` [CN Cl NO2 H, 6-Chloro-5-cyano-7-nitro-1,4-dihydroquinoxaline-2,3-dione], in experiment [1], the Ki was determined as 50 nM.

On to `Oc1nc2cc(F)c(Cl)c(F)c2nc1O` [F Cl F H, 6-Chloro-5,7-difluoro-1,4-dihydroquinoxaline-2,3-dione], for which the Ki on glycine binding site is 1000 nM. In addition, in the experiment with mice (iv, Table III, i.v. injection), the 50% effective dose (ED50) was found to be 10 mg/kg.

For `O=c1[nH]c2cc(Cl)cc(C(F)(F)F)c2[nH]c1=O` [CF3 H Cl H], the Ki on glycine binding site (Table IV, read-out: Ki) is 395 nM. Also, in the experiment with mice (Table IV, i.v.), the ED100 came out at 30 mg/kg, the median effective dose (ED50) was found to be 10 mg/kg and the “IV peak of action” value is recorded as 30 min. Besides, in the experiment on mice (i.v., 30 mg/kg), the “% protection after 60 min.” value was 87%.

For `[N-]=[N+]=Nc1c(Cl)cc2[nH]c(=O)c(=O)[nH]c2c1Cl` [Cl N3 Cl H, 6-azido-5,7-dichloro-1,4-dihydroquinoxaline-2,3-dione], in experiment [1], the inhibition constant Ki came to 536 nM.

For the compound `CCSc1c(Cl)cc2[nH]c(=O)c(=O)[nH]c2c1[N+](=O)[O-]` [NO2 SEt Cl H, 7-Chloro-1,4-dihydro-6-ethylthio-5-nitroquinoxaline-2,3-dione], the Ki in experiment [1] amounted to 500 nM.

Turning to `COc1c(F)cc2[nH]c(=O)c(=O)[nH]c2c1[N+](=O)[O-]` [NO2 OMe F H, 7-Fluoro-6-methoxy-5-nitro-1,4-dihydroquinoxaline-2,3-dione], the Ki (in experiment [1]; at glycine binding site) was 320 nM in each case. In addition, the “ED50 (MES)” value in the experiment on mice (Table III, i.v. injection) was 7.5 mg/kg.

For the compound `O=[N+]([O-])c1ccc2nc(O)c(O)nc2c1` [NO2, reference compound], the Ki at glycine binding site (Table I, read-out: Ki) came out at 1390 nM.

For the compound `O=c1[nH]c2cc3c(cc2[nH]c1=O)CCC3` [H CH2 CH2 CH2 H, Cyclopento[g]-1,4-dihydroquinoxaline-2,3-dione], in experiment [1], the inhibitory constant (Ki) came to 6300 nM.

Take `Cc1cc2[nH]c(=O)c(=O)[nH]c2cc1C` [H Me Me H, 6,7-Dimethyl-1,4-dihydroquinoxaline-2,3-dione]: in experiment [1], the Ki was found to be 980 nM.

Consider `O=c1[nH]c2cc(C(F)(F)F)cc(Cl)c2[nH]c1=O` [Cl H CF3 H], for which the Ki on glycine binding site (Table IV, read-out: Ki) was 320 nM. Besides, in the experiment with mice (Table IV, i.v.), the ED100 is 20 to 25 mg/kg, the ED50 turned out to be 10 mg/kg and the “IV peak of action” value was determined as 15 min. The “% protection after 60 min.” value in the experiment on mice (i.v., 20 mg/kg) was 62%.

In the case of `O=c1[nH]c2cc(F)c(F)cc2[nH]c1=O` [H F F H, 6,7-Difluoro-1,4-dihydro-2,3-quinoxalinedione], on glycine binding site (Table III, read-out: Ki), the Ki is 8200 nM. The 50% effective dose (ED50) with mice (iv, Table III, i.v. injection) was 15 mg/kg.

As to `O=c1[nH]c2cc(Cl)c(Cl)cc2[nH]c1=O` [6,7-dichloro-1,4-dihydroquinoxaline-2,3-dione], the “glycine site antagonism or affinity (words)” value in experiment [2] was “competitive antagonist specific to the strychnine-insensitive [^3 H] glycine binding sites”; in experiment [2] (listed as drawing 6), “competitively displaced the strychnine-insensitive binding of [^3 H]glycine, without affecting the other binding sites on the NMDA receptor complex”.

Regarding `N#Cc1ccc2nc(O)c(O)nc2c1` [CN, reference compound], the Ki at glycine binding site (Table I, read-out: Ki) came to 4890 nM.

For `O=c1[nH]c2ccc(F)cc2[nH]c1=O` [F, reference compound], on glycine binding site (Table I, read-out: Ki), the Ki was determined as 2880 nM.

`Nc1ccc2[nH]c(=O)c(=O)[nH]c2c1` [NH2, reference compound]: the Ki entry at glycine binding site (Table I) was “inactive”.

`O=c1[nH]c2cc(C(F)(F)F)cc([N+](=O)[O-])c2[nH]c1=O` [NO2 H CF3 H, 7-trifluoromethyl-5-nitro-1,4-dihydroquinoxaline-2,3-dione]: the Ki at glycine binding site (Table IV, read-out: Ki) came to 95 nM. Besides, in the experiment on mice (Table IV, i.v.), the ED100 was determined as 40 mg/kg, the ED50 worked out at 17 mg/kg and the “IV peak of action” value is on record as 30 min. Further, the “% protection after 60 min.” value with mice (i.v., 40 mg/kg) turned out to be 62%.
